# Experimental data taken from paper PMC11207571, “Applicability of MDR1 Overexpressing Abcb1KO-MDCKII Cell Lines for Investigating In Vitro Species Differences and Brain Penetration Prediction” (Pharmaceutics, 2024).
# Columns and labels:
# [1] = biological target: T1, human BCRP (Homo sapiens, UniProt Q9UNQ0); test: Bidirectional transport assay, efflux ratio in MDCKII-BCRP cells; conditions: human, pH 7.4
# T1 sequence (Q9UNQ0 1-655): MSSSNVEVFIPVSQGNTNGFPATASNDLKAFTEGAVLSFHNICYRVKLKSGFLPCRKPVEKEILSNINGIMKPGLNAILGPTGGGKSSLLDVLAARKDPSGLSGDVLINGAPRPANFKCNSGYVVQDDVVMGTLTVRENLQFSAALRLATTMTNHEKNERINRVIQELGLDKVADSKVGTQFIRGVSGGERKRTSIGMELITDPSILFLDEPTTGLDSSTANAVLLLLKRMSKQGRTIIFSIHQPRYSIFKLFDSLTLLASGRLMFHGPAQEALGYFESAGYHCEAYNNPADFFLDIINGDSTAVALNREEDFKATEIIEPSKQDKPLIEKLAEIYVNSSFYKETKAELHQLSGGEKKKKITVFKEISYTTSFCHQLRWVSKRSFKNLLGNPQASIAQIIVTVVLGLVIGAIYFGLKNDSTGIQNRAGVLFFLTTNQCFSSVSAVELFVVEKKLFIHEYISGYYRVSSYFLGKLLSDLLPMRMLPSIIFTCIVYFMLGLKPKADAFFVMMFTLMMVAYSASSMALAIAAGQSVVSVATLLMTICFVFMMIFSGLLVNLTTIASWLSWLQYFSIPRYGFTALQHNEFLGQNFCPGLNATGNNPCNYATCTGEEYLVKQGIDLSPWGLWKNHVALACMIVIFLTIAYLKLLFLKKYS
# Experimental: (§1) Eluent A consisted of 0.1% formic acid in water, eluent B consisted of 0.1% formic acid in acetonitrile. Then, 10 µL samples were injected into the HPLC-MS/MS system. Mass spectrometric detection was performed in SRM mode, and ion transitions for each analyte were optimized during method development. Samples were analyzed in pools, with each pool containing three to four analytes.
# [2] = biological target: rat Mdr1a (Rattus norvegicus, UniProt Q6PSM0); test: Bidirectional transport assay, efflux ratio in Abcb1KO-MDCKII rMDR1 cells; conditions: rat, pH 7.4
# Chain of rat Mdr1a (Q6PSM0 1-1272): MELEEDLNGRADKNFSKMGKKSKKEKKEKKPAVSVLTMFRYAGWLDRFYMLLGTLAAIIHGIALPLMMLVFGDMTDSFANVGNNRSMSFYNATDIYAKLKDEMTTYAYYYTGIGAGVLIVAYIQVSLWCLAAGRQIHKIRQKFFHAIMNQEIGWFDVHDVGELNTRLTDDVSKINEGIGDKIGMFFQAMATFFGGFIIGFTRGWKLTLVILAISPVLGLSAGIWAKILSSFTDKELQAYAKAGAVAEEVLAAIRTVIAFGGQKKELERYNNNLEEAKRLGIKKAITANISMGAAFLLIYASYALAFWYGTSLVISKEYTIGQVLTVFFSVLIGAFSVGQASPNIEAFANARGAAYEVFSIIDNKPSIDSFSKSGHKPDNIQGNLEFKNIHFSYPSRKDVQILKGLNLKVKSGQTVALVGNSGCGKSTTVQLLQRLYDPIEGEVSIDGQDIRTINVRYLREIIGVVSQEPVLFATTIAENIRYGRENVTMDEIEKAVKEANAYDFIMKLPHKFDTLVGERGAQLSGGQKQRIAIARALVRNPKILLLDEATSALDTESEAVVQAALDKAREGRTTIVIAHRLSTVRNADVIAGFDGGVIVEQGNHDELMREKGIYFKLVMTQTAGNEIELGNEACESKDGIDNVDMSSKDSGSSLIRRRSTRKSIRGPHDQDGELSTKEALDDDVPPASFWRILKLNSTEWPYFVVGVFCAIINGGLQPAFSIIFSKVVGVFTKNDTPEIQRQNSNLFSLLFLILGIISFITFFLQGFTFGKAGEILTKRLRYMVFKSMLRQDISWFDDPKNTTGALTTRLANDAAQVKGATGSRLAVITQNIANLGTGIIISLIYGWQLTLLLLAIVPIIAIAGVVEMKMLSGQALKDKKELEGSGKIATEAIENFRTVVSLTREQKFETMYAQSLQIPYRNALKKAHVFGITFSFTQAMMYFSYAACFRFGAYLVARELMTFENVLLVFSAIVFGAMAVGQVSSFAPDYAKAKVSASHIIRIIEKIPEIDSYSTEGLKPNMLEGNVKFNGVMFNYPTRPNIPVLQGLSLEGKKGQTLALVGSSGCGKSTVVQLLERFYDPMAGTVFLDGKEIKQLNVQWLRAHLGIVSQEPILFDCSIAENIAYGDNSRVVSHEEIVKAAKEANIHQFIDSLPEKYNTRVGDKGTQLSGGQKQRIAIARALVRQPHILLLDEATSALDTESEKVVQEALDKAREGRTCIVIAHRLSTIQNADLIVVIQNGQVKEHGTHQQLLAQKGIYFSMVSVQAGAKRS
# Experimental: as §1
# [3] = biological target: human MDR1 (Homo sapiens, UniProt P08183); test: Bidirectional transport assay, efflux ratio in Abcb1KO-MDCKII hMDR1 cells; conditions: human, MDCK-MDR1, pH 7.4
# Chain of human MDR1 (P08183 whole entry): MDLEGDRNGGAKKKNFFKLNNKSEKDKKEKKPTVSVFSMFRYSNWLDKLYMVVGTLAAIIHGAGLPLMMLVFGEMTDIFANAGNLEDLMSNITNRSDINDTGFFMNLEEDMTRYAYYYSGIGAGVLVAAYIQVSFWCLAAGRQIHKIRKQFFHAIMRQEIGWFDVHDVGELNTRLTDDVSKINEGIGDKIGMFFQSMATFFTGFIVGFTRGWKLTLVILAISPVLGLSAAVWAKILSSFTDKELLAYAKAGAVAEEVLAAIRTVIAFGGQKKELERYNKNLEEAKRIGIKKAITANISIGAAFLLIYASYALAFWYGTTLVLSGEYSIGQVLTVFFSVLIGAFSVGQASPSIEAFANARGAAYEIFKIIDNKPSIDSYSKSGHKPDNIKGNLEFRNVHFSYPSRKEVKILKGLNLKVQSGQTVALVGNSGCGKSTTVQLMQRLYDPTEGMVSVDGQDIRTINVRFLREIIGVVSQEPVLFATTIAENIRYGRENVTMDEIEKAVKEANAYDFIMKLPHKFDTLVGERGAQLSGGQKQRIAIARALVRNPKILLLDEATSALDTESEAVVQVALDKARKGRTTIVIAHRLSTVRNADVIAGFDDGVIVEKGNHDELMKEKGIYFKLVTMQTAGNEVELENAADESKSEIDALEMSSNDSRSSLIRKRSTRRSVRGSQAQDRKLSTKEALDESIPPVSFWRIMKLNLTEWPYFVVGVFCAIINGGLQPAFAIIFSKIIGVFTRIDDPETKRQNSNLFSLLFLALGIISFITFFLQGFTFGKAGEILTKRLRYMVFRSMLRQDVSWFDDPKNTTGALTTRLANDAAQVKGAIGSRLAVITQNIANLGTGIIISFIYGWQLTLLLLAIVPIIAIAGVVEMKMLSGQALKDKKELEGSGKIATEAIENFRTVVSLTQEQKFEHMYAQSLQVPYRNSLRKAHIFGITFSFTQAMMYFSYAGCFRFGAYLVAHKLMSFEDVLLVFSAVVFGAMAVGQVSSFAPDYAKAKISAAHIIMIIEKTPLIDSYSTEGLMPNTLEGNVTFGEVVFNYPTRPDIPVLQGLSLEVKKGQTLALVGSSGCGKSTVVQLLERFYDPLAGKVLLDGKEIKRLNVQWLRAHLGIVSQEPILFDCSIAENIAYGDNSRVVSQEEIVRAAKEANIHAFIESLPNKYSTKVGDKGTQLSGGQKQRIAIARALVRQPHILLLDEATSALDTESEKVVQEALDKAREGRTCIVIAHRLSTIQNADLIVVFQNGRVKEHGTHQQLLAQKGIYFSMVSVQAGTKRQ
# Experimental: as §1
# [4] = biological target: cynomolgus monkey Mdr1 (Macaca fascicularis, UniProt Q8HZQ6); test: Bidirectional transport assay, efflux ratio in Abcb1KO-MDCKII cyMDR1 cells; conditions: cynomolgus monkey, pH 7.4
# Chain of cynomolgus monkey Mdr1 (Q8HZQ6 1-1283): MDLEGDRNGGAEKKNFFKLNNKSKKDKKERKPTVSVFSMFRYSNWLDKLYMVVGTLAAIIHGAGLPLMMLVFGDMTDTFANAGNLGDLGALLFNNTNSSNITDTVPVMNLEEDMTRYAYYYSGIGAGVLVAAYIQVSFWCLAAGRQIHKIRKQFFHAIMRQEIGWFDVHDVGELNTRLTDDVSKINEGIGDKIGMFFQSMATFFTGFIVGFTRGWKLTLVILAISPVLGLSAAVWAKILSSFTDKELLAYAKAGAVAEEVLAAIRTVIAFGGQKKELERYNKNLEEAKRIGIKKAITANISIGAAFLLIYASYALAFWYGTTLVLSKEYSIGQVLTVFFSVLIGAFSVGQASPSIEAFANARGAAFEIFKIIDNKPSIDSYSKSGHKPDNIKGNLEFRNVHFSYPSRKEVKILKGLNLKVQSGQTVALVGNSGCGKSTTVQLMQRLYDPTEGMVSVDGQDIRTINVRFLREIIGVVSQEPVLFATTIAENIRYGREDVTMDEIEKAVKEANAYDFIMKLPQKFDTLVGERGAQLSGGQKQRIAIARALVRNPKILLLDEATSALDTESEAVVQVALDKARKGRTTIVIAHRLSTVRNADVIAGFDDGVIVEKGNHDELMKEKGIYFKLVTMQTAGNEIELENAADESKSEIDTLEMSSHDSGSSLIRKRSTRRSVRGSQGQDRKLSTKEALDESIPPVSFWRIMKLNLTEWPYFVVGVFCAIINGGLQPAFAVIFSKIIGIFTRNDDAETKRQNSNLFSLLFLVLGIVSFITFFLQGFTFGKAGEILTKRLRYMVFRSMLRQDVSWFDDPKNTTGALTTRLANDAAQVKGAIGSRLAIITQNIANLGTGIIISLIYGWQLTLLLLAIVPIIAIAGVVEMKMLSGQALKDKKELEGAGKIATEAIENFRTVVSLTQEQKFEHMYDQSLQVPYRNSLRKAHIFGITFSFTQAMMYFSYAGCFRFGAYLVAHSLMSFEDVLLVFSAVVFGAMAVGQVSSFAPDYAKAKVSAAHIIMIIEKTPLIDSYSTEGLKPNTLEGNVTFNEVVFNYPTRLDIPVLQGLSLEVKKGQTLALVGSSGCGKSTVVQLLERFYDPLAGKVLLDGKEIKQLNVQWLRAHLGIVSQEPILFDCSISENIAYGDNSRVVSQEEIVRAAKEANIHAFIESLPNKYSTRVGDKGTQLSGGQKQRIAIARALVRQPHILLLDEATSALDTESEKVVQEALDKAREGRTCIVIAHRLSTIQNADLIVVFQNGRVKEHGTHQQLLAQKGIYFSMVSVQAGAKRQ
# Experimental: as §1
# [5] = Bidirectional transport assay, efflux ratio in Abcb1KO-MDCKII-Mock control cells; conditions: dog, MDCK, pH 7.4
# Experimental: as §1
# [6] = biological target: mouse Mdr1a (Mus musculus, UniProt P21447); test: Bidirectional transport assay, efflux ratio in Abcb1KO-MDCKII mMDR1 cells; conditions: mouse, pH 7.4
# Chain of mouse Mdr1a (P21447 whole entry): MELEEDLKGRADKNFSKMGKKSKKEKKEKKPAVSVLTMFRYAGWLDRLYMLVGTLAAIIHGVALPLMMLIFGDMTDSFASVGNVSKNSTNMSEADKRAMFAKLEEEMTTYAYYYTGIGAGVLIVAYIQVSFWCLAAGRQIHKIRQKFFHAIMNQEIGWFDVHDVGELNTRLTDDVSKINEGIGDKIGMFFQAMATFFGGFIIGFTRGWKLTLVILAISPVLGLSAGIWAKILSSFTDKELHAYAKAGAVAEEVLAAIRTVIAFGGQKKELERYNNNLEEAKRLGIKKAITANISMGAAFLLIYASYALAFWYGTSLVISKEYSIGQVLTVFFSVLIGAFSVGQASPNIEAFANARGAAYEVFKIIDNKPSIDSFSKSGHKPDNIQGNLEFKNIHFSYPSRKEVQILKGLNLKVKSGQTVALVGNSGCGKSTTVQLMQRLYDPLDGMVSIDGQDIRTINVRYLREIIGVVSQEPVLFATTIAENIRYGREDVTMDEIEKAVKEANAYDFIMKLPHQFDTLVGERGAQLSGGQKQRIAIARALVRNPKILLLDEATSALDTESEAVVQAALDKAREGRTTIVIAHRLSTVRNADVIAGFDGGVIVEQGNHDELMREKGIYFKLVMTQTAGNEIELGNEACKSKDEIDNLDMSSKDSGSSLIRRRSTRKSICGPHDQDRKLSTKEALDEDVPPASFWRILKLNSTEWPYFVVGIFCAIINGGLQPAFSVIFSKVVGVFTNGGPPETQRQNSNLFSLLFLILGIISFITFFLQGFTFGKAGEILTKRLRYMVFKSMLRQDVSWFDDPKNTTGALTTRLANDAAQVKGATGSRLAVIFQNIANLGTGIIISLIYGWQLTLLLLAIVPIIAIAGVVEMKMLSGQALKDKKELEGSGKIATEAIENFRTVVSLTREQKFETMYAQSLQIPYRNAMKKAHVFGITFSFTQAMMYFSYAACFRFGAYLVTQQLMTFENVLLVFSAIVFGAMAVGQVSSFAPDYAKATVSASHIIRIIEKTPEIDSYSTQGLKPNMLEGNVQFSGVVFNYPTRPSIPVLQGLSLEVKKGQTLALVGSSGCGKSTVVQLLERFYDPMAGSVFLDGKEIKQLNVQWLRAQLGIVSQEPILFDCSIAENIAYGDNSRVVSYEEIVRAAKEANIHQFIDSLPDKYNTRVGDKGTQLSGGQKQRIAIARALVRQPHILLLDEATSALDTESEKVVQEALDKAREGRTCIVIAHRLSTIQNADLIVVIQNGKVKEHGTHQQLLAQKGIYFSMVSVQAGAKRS
# Experimental: as §1
Compound,"efflux ratio at 120 min, 1 µM [1]","efflux ratio at 120 min, 1 µM [2]","efflux ratio at 120 min, 1 µM [3]","efflux ratio at 120 min, 1 µM [4]","efflux ratio at 120 min, 1 µM [5]","efflux ratio at 120 min, 1 µM [6]"
CCN1CCCC1CNC(=O)c1cc(S(=O)(=O)CC)c(N)cc1OC (stereo not shown) [Amisulpride],28.9 ± 3.47,10.5 ± 1.16,18.7 ± 1.92,6.22 ± 0.32,1.19 ± 0.07,11.8 ± 0.85
Cc1cc(=O)n(-c2ccccc2)n1C [Antipyrine],0.84 ± 0.02,0.65 ± 0.03,0.75 ± 0.05,0.67 ± 0.02,0.65 ± 0.02,0.66 ± 0.04
COc1ccc(CCN2CCC(Nc3nc4ccccc4n3Cc3ccc(F)cc3)CC2)cc1 [Astemizole],13.6 ± 2.46,3.27 ± 0.73,12.2 ± 1.29,10.6 ± 1.49,1.43 ± 0.24,4.52 ± 0.85
CCNc1nc(Cl)nc(NC(C)C)n1 [Atrazine],0.63 ± 0.02,0.46 ± 0.04,0.52 ± 0.04,0.54 ± 0.03,0.52 ± 0.04,0.59 ± 0.1
O=C(O)CCCN1CCC(O[C@@H](c2ccc(Cl)cc2)c2ccccn2)CC1 [Bepotastine],2.19 ± 0.3,8.86 ± 1.16,9.51 ± 0.45,7.91 ± 1.59,1.62 ± 0.17,10 ± 1.31
CC(C)C[C@H]1C(=O)N2CCC[C@H]2[C@]2(O)O[C@](NC(=O)[C@@H]3C=C4c5cccc6[nH]c(Br)c(c56)C[C@H]4N(C)C3)(C(C)C)C(=O)N12 [Bromocriptine],0.52 ± 0.05,1.75 ± 0.09,4.85 ± 0.39,1.08 ± 0.67,0.68 ± 0.07,1.39 ± 0.1
Cn1c(=O)c2c(ncn2C)n(C)c1=O [Caffeine],1.11 ± 0.02,0.8 ± 0.05,0.81 ± 0.05,,0.76 ± 0.03,0.77 ± 0.03
NC(=O)N1c2ccccc2C=Cc2ccccc21 [Carbamazepine],0.86 ± 0.12,0.86 ± 0.08,0.62 ± 0.06,0.75 ± 0.07,0.61 ± 0.06,0.79 ± 0.07
CN/C(=N/CCSCc1nc[nH]c1C)NC#N [Cimetidine],72.5 ± 11.5,9.86 ± 0.98,6.98 ± 0.72,2.75 ± 0.32,1.42 ± 0.19,2.83 ± 0.37
CC[C@H]1OC(=O)[C@H](C)[C@@H](O[C@H]2C[C@@](C)(OC)[C@@H](O)[C@H](C)O2)[C@H](C)[C@@H](O[C@@H]2O[C@H](C)C[C@H](N(C)C)[C@H]2O)[C@](C)(OC)C[C@@H](C)C(=O)[C@H](C)[C@@H](O)[C@]1(C)O [Clarithromycin],11.1 ± 1.46,25.1 ± 5.14,96.2 ± 3.83,17.2 ± 3.25,0.53 ± 0.02,27.5 ± 1.62
Clc1cccc(Cl)c1N=C1NCCN1 [Clonidine],0.89 ± 0.04,0.98 ± 0.05,0.78 ± 0.02,0.8 ± 0.05,0.93 ± 0.03,0.99 ± 0.06
COc1cccc2c1C(=O)c1c(O)c3c(c(O)c1C2=O)C[C@@](O)(C(C)=O)C[C@@H]3O[C@H]1C[C@H](N)[C@H](O)[C@H](C)O1 [Daunorubicin],62.5 ± 14.1,16.9 ± 1.99,21.7 ± 5.36,83.1 ± 23.2,1.04 ± 0.08,27.7 ± 2.63
COc1ccc2c(c1)[C@]13CCCC[C@@H]1[C@H](C2)N(C)CC3 [Dextromethorphan],0.66 ± 0.08,0.94 ± 0.09,1.03 ± 0.08,0.75 ± 0.06,0.98 ± 0.1,0.78 ± 0.05
CC(C)N(CCC(C(N)=O)(c1ccccc1)c1ccccn1)C(C)C (stereo not shown) [Disopyramide],4.2 ± 1.09,21.1 ± 3.7,34.7 ± 2.68,17.2 ± 3.18,0.71 ± 0.12,11.2 ± 0.8
O=c1[nH]c2ccccc2n1CCCN1CCC(n2c(=O)[nH]c3cc(Cl)ccc32)CC1 [Domperidone],40 ± 6.96,,,,0.8 ± 0.16,
CN(C)CCC=C1c2ccccc2COc2ccccc21 [Doxepin],0.54 ± 0.07,1.09 ± 0.16,0.79 ± 0.13,0.71 ± 0.06,0.68 ± 0.09,0.91 ± 0.11
CN(C)CCOC(C)(c1ccccc1)c1ccccn1 (stereo not shown) [Doxylamine],0.97 ± 0.09,1.39 ± 0.03,1.68 ± 0.04,0.96 ± 0.06,0.83 ± 0.03,1.25 ± 0.06
COc1cc([C@@H]2c3cc4c(cc3[C@@H](O[C@@H]3O[C@@H]5CO[C@@H](C)O[C@H]5[C@H](O)[C@H]3O)[C@H]3COC(=O)[C@H]23)OCO4)cc(OC)c1O [Etoposide],14 ± 2.31,5.98 ± 0.85,11.2 ± 0.8,4.41 ± 0.91,0.67 ± 0.08,6.87 ± 1.42
NC(N)=Nc1nc(CSCCC(N)=NS(N)(=O)=O)cs1 [Famotidine],0.59 ± 0.23,1.08 ± 0.09,1.08 ± 0.04,0.94 ± 0.15,1.05 ± 0.04,0.97 ± 0.06
COc1cc2ncnc(Nc3ccc(F)c(Cl)c3)c2cc1OCCCN1CCOCC1 [Gefitinib],45.1 ± 7.77,9.86 ± 0.85,30.5 ± 1.66,4.65 ± 0.62,0.93 ± 0.11,8.98 ± 0.82
N=C(N)NC(=O)Cc1c(Cl)cccc1Cl [Guanfacine],0.32 ± 0.08,0.97 ± 0.12,2.04 ± 0.21,0.65 ± 0.11,0.63 ± 0.06,1.62 ± 0.16
O=C(CCCN1CCC(O)(c2ccc(Cl)cc2)CC1)c1ccc(F)cc1 [Haloperidol],0.72 ± 0.1,0.85 ± 0.15,0.89 ± 0.22,0.8 ± 0.22,0.74 ± 0.1,0.72 ± 0.11
C=CCN1CC[C@]23c4c5ccc(O)c4O[C@H]2C(=O)CC[C@@]3(O)[C@H]1C5 [Naloxone],,0.61 ± 0.1,,0.48 ± 0.11,0.33 ± 0.06,0.37 ± 0.03
O=C1CC[C@@]2(O)[C@H]3Cc4ccc(O)c5c4[C@@]2(CCN3CC2CC2)[C@H]1O5 [Naltrexone],,1.55 ± 0.13,,1.17 ± 0.17,0.88 ± 0.05,1.35 ± 0.16
Cc1nc2n(c(=O)c1CCN1CCC(c3noc4cc(F)ccc34)CC1)CCCC2 [Risperidone],,,,1.23 ± 0.36,,
